Laboratory results reported in patent US10016424B2, “Method and pharmaceutical composition for use in the treatment of epilepsy” (INSERM (Institut National de la Sante et de la Recherche …, priority 2013, dated 2018).
Where two headings read alike, the source gives them in different places.

Tests used:
[1] = system: dentate gyrus of organotypic slices; assay: Spontaneous interictal-like activity, extracellular field recordings in pilocarpine-treated organotypic hippocampal slice cultures; assay type: cell-based, mouse
Method: (§1) Hippocampal/entorhinal cortex slices (350 μm) were prepared from pre-genotyped GluK2−/− and WT mice (P9-10, FVB/N background) using a McIlwain tissue chopper. Slices were placed on mesh inserts (Millipore # PICMORG50) inside culture dishes containing 1 ml of the following medium: MEM 50%, HS 25%, HBSS 25%, HEPES 15 mM glucose 6.5 mg/ml and insulin 0.1 mg/ml. Culture medium was changed every 2-3 days and slices maintained in an incubator at 37° C./5% CO2. Pilocarpine (0.5 μM) was added to the medium at 5 D.I.V and removed at 7 D.I.V; slices were utilized for experiments from 9 D.I.V.
Cultured or acute slices were individually transferred to a recording chamber maintained at 30-32° C. and continuously perfused (2 ml/min) with oxygenated normal or adapted ACSF containing 5 μM gabazine. Local field potentials were made in the granule cell layer of the DG with glass electrodes (2-3 MΩ; filled with normal ACSF) using a DAM-80 amplifier (low filter, 1 Hz; […], 3 KHz; World Precision Instruments, Sarasota, Fla.). For evoked synaptic transmission, electrical stimulation was performed with a bipolar NiCh electrode (#762000, AM systems). Whole-cell voltage-clamp recordings of DGCs were made using tight-seal electrodes (5-8 MΩ) filled with an internal solution containing the following (in mM): 135 gluconic acid, 135 CsOH, 10 MgCl2, 0.1 CaCl2, 1 EGTA, 10 HEPES, 2 MgATP, 0.4 NaGTP, and 0.5% biocytin, pH 7.25. We used a Multiclamp 700B amplifier (Molecular Devices): data were filtered at 2 kHz, digitized (20 kHz) with a Digidata 1440A (Molecular Devices) to a PC, and acquired using Clampex 10.1 software (PClamp, Molecular Devices). Signals were analyzed off-line using Clampfit 9.2 (PClamp) and MiniAnalysis 6.0.1 (Synaptosoft, Decatur, Ga.). In organotypic slices, spontaneous EPSCs were recorded at the reversal potential for GABAergic currents (Vh=−70 mV). To characterize the nature and kinetic properties of fast and slow events, miniature EPSCs (mEPSCs) evoked in Sr2+ conditions (external Ca2+ was substituted with 1.2 mM Sr2+) were recorded in DGCs from GluK2−/− and WT slices. Electrical stimulation was made in the molecular layer in the continued presence of 5 μM gabazine and 40 μM D-APV; asynchronous mEPSCs were measured during the 300 ms period after the stimulus artifact. […] In cultured slices, visual representation of time-frequency analysis of local field potentials was performed using Autosignal software (Seasolve 1.7). In brief, field activity was highpass-filtered (>100 Hz) and time-frequency analysis performed using a continuous wavelet (Morlet) that reported integrated power (time-integral-squared amplitude, TISA) across time. Filtered traces were also analyzed by Fourier analysis (Hamming) using Clampfit 9.2. In acute hippocampal slices, intensity of antidromically-evoked bursts was quantified using coastline index (Epsztein et al., 2005).
The role of KARs in spontaneous epileptiform activity was then tested using extracellular field recordings in cultured slices. Recordings were performed in 5 mM K+-containing ACSF and in the presence of 5 μM gabazine in order to enhance neuronal excitability and to reliably record stereotyped spontaneous interictal-like activity (Berdichevsky et al., 2012).

[2] = system: KAR-mediated EPSCs at mossy fiber synapses; assay: Evoked KAR-mediated EPSCs at recurrent mossy fiber synapses in acute hippocampal slices from pilocarpine-treated mice; assay type: cell-based, mouse; details: 1 μM; DGCs from WT pilocarpine-treated mice; data not shown
Method: All experiments were approved by the Institut National de la Santé et de la Recherche Médicale animal care and use committee of May 29, 2001 (2001-464) and the European community council directive of Nov. 24, 1986 (86/609/EEC). Mice (FVB/N background) had access to food and water ad libitum and were housed under a 12 h light/dark cycle at 22-24° C. Male GluK2−/− and WT mice (P60-80) were given scopolamine (1 mg/kg) subcutaneously (s.c.) 15 minutes prior to s.c. administration of pilocarpine (200-600 mg/kg). A ramp protocol was used whereby animals were given an initial dose of 200 mg/kg followed by half-doses every 30 minutes until seizures appeared. […] Diazepam (10 mg/kg) was administered 45 minutes after onset of SE. […]
Cultured or acute slices were individually transferred to a recording chamber maintained at 30-32° C. and continuously perfused (2 ml/min) with oxygenated normal or adapted ACSF containing 5 μM gabazine. […] Signals were analyzed off-line using Clampfit 9.2 (PClamp) and MiniAnalysis 6.0.1 (Synaptosoft, Decatur, Ga.). In organotypic slices, spontaneous EPSCs were recorded at the reversal potential for GABAergic currents (Vh=−70 mV). To characterize the nature and kinetic properties of fast and slow events, miniature EPSCs (mEPSCs) evoked in Sr2+ conditions (external Ca2+ was substituted with 1.2 mM Sr2+) were recorded in DGCs from GluK2−/− and WT slices. […]

AMPARs = assay: Remaining fast (AMPAR-mediated) EPSCs in dentate granule cells of GluK2-/- organotypic slices; assay type: cell-based, mouse; details: 30 μM, data not shown
Method: as §1
Cultured or acute slices were individually transferred to a recording chamber maintained at 30-32° C. and continuously perfused (2 ml/min) with oxygenated normal or adapted ACSF containing 5 μM gabazine. […] Signals were analyzed off-line using Clampfit 9.2 (PClamp) and MiniAnalysis 6.0.1 (Synaptosoft, Decatur, Ga.). In organotypic slices, spontaneous EPSCs were recorded at the reversal potential for GABAergic currents (Vh=−70 mV). To characterize the nature and kinetic properties of fast and slow events, miniature EPSCs (mEPSCs) evoked in Sr2+ conditions (external Ca2+ was substituted with 1.2 mM Sr2+) were recorded in DGCs from GluK2−/− and WT slices. […] Filtered traces were also analyzed by Fourier analysis (Hamming) using Clampfit 9.2. […]

KARs = biological target: T1, KARs (Mus musculus, UniProt P39087+Q61626); assay type: cell-based
T1 construct: from tissue; host or cells: dentate granule cells in pilocarpine-treated organotypic hippocampal/entorhinal slice cultures from WT mice (FVB/N)
T1 sequence (P39087 32-908): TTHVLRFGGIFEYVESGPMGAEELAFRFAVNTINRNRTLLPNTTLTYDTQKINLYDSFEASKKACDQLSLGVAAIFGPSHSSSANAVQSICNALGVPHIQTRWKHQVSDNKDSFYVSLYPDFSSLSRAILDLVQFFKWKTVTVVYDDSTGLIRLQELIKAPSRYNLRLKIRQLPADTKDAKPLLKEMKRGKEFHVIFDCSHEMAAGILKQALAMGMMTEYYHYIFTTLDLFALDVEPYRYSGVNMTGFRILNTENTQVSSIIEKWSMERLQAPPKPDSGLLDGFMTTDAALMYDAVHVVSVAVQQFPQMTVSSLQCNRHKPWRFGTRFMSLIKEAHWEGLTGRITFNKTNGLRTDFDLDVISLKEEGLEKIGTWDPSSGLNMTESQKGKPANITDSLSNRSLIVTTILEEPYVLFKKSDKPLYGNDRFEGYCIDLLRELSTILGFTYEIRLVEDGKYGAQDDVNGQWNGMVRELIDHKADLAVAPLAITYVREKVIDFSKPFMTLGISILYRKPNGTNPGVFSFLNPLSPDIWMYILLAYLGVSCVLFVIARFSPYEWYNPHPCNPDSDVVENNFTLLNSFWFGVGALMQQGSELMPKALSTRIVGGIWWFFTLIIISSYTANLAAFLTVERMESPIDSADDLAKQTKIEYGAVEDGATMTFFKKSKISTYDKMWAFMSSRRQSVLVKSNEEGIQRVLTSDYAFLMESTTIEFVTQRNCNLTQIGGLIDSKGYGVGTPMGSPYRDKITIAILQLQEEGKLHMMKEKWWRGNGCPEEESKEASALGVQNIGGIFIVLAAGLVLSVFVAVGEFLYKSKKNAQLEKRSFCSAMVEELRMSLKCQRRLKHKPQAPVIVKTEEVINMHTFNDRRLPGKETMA
T1 sequence (Q61626 15-979): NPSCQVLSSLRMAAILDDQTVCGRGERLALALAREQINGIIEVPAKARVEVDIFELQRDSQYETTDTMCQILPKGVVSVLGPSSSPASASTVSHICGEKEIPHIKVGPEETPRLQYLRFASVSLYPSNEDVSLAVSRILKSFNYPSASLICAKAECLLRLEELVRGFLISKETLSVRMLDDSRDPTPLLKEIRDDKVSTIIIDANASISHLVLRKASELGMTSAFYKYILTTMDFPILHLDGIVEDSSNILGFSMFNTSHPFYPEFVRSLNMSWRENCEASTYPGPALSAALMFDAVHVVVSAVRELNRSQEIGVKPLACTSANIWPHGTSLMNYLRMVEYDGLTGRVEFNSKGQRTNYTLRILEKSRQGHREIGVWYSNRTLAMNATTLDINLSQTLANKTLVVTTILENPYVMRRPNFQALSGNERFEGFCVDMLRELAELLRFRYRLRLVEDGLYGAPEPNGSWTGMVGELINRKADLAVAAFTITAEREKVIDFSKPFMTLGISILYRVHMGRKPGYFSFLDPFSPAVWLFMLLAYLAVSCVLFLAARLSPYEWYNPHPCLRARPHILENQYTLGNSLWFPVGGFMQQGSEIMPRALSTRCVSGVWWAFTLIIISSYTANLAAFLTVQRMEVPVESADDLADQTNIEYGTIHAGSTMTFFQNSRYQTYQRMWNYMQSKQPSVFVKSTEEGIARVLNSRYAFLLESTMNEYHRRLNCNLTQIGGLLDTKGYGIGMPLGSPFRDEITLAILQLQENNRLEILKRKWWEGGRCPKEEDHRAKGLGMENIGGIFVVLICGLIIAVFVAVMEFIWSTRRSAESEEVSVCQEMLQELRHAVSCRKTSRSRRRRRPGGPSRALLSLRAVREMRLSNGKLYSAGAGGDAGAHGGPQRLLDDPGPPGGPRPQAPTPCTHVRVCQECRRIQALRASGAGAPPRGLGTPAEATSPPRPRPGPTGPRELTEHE
Method: as §1
Cultured or acute slices were individually transferred to a recording chamber maintained at 30-32° C. and continuously perfused (2 ml/min) with oxygenated normal or adapted ACSF containing 5 μM gabazine. Local field potentials were made in the granule cell layer of the DG with glass electrodes (2-3 MΩ; filled with normal ACSF) using a DAM-80 amplifier (low filter, 1 Hz; […], 3 KHz; World Precision Instruments, Sarasota, Fla.). For evoked synaptic transmission, electrical stimulation was performed with a bipolar NiCh electrode (#762000, AM systems). […] Signals were analyzed off-line using Clampfit 9.2 (PClamp) and MiniAnalysis 6.0.1 (Synaptosoft, Decatur, Ga.). In organotypic slices, spontaneous EPSCs were recorded at the reversal potential for GABAergic currents (Vh=−70 mV). To characterize the nature and kinetic properties of fast and slow events, miniature EPSCs (mEPSCs) evoked in Sr2+ conditions (external Ca2+ was substituted with 1.2 mM Sr2+) were recorded in DGCs from GluK2−/− and WT slices. Electrical stimulation was made in the molecular layer in the continued presence of 5 μM gabazine and 40 μM D-APV; asynchronous mEPSCs were measured during the 300 ms period after the stimulus artifact. […] Filtered traces were also analyzed by Fourier analysis (Hamming) using Clampfit 9.2. In acute hippocampal slices, intensity of antidromically-evoked bursts was quantified using coastline index (Epsztein et al., 2005).

[3] = slices from WT mice, 10 μM SYM2081 or 5 μM UBP310

NS(=O)(=O)c1cc2c(cc1Cl)NC(C1CC3C=CC1C3)NS2(=O)=O (stereo not drawn) [CTZ, cyclothiazide]
recovery of reduced interictal-like activity in GluK2-/- slices ([1]; GluK2-/- slices, bath application): could be recovered

N[C@H](C(=O)O)C1[C@@H](C(=O)O)[C@@H]1C(=O)O (stereo partly drawn) [DCGIV]
inhibition of KAR-mediated EPSCs [2]: 84%

CNC(=O)N1N=C(c2ccc(N)cc2)c2cc3c(cc2CC1C)OCO3 (stereo not drawn) [GYKI53655]
block of remaining fast EPSCs (AMPARs): fully blocked
effect on KAR-mediated mEPSCs (KARs; WT cultured slices, SYM2081 10 μM, UBP310 5 μM, Sr2+ conditions, 5 μM gabazine, 40 μM D-APV): insensitive

C[C@H](C[C@H](N)C(=O)O)C(=O)O [SYM2081, (2S,4R)-4-Methylglutamate]
alteration of the PD phase (power of paroxysmal discharge) [1, 3]: No significant alteration
reduction of power of the bursts in the late MB phase [1, 3]: 68%
reduction of frequency of interictal-like activity ([1]; slices from WT mice, 10 μM SYM2081 or 5 μM UBP310, 5 mM K+ ACSF, 5 μM gabazine): 47%
frequency of interictal-like activity ([1]; slices from WT mice, 10 μM SYM2081 or 5 μM UBP310, without antagonist 3.2±0.4, mean±SEM): 1.69±0.3 events/min
effect on KAR-mediated mEPSCs (KARs): abolished
